Results as given in ChEMBL document CHEMBL1127943, “Morpholine-based substance P antagonists: assessment of the 3-point binding model” (Bioorg Med Chem Lett, 1994).

Molecular target: Substance-P receptor (Homo sapiens, UniProt P25103)
Assay: Binding affinity towards human Tachykinin receptor 1 by the displacement of [125I]- Substance P in CHO Cells

Sequence of Substance-P receptor (P25103 whole entry): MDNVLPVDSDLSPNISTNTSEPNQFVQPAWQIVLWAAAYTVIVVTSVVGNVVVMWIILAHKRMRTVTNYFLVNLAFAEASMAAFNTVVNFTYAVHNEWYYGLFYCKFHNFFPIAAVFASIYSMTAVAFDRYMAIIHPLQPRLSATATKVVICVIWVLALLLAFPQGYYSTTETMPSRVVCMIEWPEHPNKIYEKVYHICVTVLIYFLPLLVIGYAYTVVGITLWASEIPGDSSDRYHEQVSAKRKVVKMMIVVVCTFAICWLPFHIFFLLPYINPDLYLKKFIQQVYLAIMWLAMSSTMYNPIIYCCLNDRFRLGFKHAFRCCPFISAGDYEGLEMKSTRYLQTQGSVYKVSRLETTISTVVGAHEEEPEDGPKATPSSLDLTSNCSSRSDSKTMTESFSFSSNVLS

IC50 [nM]	Structure (SMILES)
1530	FC(F)(F)c1cc(CC[C@@H]2OCCN[C@@H]2c2ccccc2)cc(C(F)(F)F)c1
2530	O=C1CO[C@@H](/C=C/c2cc(C(F)(F)F)cc(C(F)(F)F)c2)[C@@H](c2ccccc2)N1
87	FC(F)(F)c1cc(C2OC2[C@@H]2OCCN[C@@H]2c2ccccc2)cc(C(F)(F)F)c1 (some centres undefined)
1130	FC(F)(F)c1cc(CC[C@H]2OCCN[C@@H]2c2ccccc2)cc(C(F)(F)F)c1
